The test system of one data set is HIV-1LAI. The experiment in a line: HIV plaque reduction assay, wild-type strain. Format: cell-based. The settings on record: Human immunodeficiency virus 1.
Another data set has as its system LAI-E89K. The experiment in a line: HIV plaque reduction assay, PFA-resistant strain. Format: cell-based, HIV-1. (In general: In a plaque reduction assay, fewer plaques than in the control indicate reduced infectivity or spread.)
For data set [1], the system named is A018-post. Conditions: AZT-resistant, AZT data from Larder et al., Science 1989; cited from earlier work.
Data set [2] concerns HIV-1. The experiment in a line: microbe, parasite or virus in culture. The settings on record: for EC50: Human immunodeficiency virus 1, read-out: EC50(HIV-1).
Excerpt: (§2) (EC50 is concentration to reduce HIV plaques by 50% and expressed as mean ±standard deviation).
The test system of data set [3] is human T-Lymphoblastic Leukemia Cells (CEM cells). The experiment in a line: Toxicity in CEM cells by propidium iodide staining and flow cytometry. The settings on record: for CC50: rapidly dividing CEM cells, viable cell numbers, read-out: TC50 (the source's name); for Selectivity Index: TC50 in CEM cells / EC50. Format: cell-based. The method, then: TC50 values were also assessed by exposing rapidly dividing human T-Lymphoblastic Leukemia Cells (CEM cells) to selected compounds of the invention and PFA. Viable cell numbers were determined by propidium iodide staining and fluorescent flow cytometry according to procedures disclosed in Dangl et al., Cytometry, 2:395-401 (1982).

In data set [4] the test system is A018-post. The experiment in a line: HIV plaque reduction assay, AZT-resistant strain. It is filed as cell-based, HIV-1. Conditions: Human immunodeficiency virus 1.
Description: (§3) Compounds of the invention were tested in a plaque-forming assay of HIV-1 proliferation in a human CD4+lymphocytic cell line (HT-4) by the procedures described in K. Y. Hostetler et al., J. Biol. Chem., 265:6112-6117 (1990); and K. Y. Hostetler et al., J. Biol. Chem., 266:11714-11717 (1991). […] (EC50 is concentration to reduce HIV plaques by 50% and expressed as mean ±standard deviation).
(§4) The assays were conducted by procedures of Example 27 above and as disclosed in K. Y. Hostetler et al., J. Biol. Chem., 265:6112-6117 (1990); and K. Y. Hostetler et al., J. Biol. Chem., 266:11714-11717 (1991).
The nature of data set [5]: Toxicity in HT4-6C cells by visual grading of cell morphology. The settings on record: human. As for the experimental part: (§1) Selected compounds of the invention and PFA were tested for activity in HT4-6C cell by procedures disclosed in B. A. Larder et al., Science, 243:1731-1734 (1989). […] The TC50 values were determined using the following visual grading scale after 3 days to exposure to the tested drug compound: 4—normal appearance; 3—slight reduction of normal cells; 2-50% of cells appear normal; 1—sparse number of normal appearing cells; 0—no living cells. Values reported in the Table below are mean ±standard deviation.

The test system of the next data set is HT4-6C cells. The description is as above. The settings on record: for Selectivity Index: TC50/EC50, HT4-6C cells. The method, then:
as §1

In data set [6] the test system is HIV-1. Conditions: for reduction of the number of viral plaques: at 1 μM, the highest concentration achievable in the growth medium.
Excerpt: as §2

The values that follow come from patent US6686462B2 (The Regents of the University of California, priority 1997, dated 2004).

A word on the EC50: it is the concentration that produces a half-maximal response. As usually defined, the melting point is the temperature of the solid-liquid transition. Usually IC50 stands for the point on the concentration scale where inhibition reaches its midpoint.

Values joined by “and” are separate entries in the source; they are usually repeats but may differ in a detail not shown here. Identical values can stand only once. Counter-ions that a name gives are not always drawn. Like-named read-outs stand apart in the source and are kept apart here.

Description for HIV-1LAI: as §3, §4
Description for LAI-E89K: as §3, §4

Turning to `Cc1cn([C@H]2C[C@H](N=[N+]=[N-])[C@@H](CO)O2)c(=O)[nH]c1=O` [AZT, 3′-azido-3′-deoxythymidine], the EC50 in the data set on HIV-1LAI is 0.013 ± 0.006 µM; with LAI-E89K (Human immunodeficiency virus 1), 0.009 ± 0.005 µM; in the data set on A018-post [1], 4 µM and 2.3 µM; in the data set with HIV-1 [2] it was 0.007 µM.

`CCCCCCCCCCCCCCCCCCOC(=O)P(=O)(O)OC` (as salt: sodium) [Example 8, Sodium Methyl 1-octadecyloxycarbonylphosphonate] displayed a melting point of 92 to 93 °C.

For the compound `CCCCCCCCCCCCCCCCCCCCCCOC(=O)O[PH](=O)OC[C@H]1O[C@@H](n2cc(C)c(=O)[nH]c2=O)C[C@@H]1N=[N+]=[N-]` (some centres unmarked) [Example 22, 3′-Azido-3′-deoxy-5′-O-(1-docosanyloxycarbonyloxyphosphinyl) thymidine], the melting point was 238 °C (dec.).

Regarding `CCCCCCCCCCCCCCCCOCCCOP(=O)(O)C(=O)OC[C@H]1O[C@@H](n2cc(C)c(=O)[nH]c2=O)C[C@@H]1N=[N+]=[N-]` [Example 25], in the data set with LAI-E89K (LAI-E89K, PFA-resistant, mean ± SD of 3 experiments, Example 25: single test value, read-out: EC50), the EC50 was determined as 1.3 µM. For the same compound, the CC50 in data set [3] was 65 µM.

`CCCCCCCCCCCCCCCCCCCCOC(=O)P(=O)(O)OC` (as salt: sodium) [Example 9, Sodium Methyl 1-eicosanyloxycarbonylphosphonate] had a melting point of 95 to 96 °C.

As for `O=C(O)P(=O)(O)O` [PFA, phosphonoformic acid, reference compound], the EC50 was 133 ± 54 µM with HIV-1LAI, > 1000 µM in the data set with LAI-E89K (Human immunodeficiency virus 1) and 65 ± 13 µM in the data set with A018-post [4]. Moreover, in the data set on HIV-1 [2] (Human immunodeficiency virus 1, read-out: IC50 (HIV-1)), the IC50 came out at 133 µM.

In the case of `CCCCCCCCCCCCCCCCCCCCCCOC(=O)P(=O)(O)OC[C@H]1O[C@@H](n2cc(C)c(=O)[nH]c2=O)C[C@@H]1N=[N+]=[N-]` [Example 22], the values for the EC50 with HIV-1LAI, in the data set with LAI-E89K (Human immunodeficiency virus 1) and in the data set with A018-post [4] were 0.32 ± 0.2 µM, 0.17 ± 0.11 µM and 0.77 ± 1.1 µM, respectively. The same compound showed a CC50 at 3 days in data set [5] of 320 µM. In addition, the “Selectivity Index” value in the data set on HT4-6C cells was 1000; in data set [3] it was 291. Moreover, the CC50 in data set [3] amounted to 93 µM.

Take `Cc1cn([C@H]2C[C@H](N=[N+]=[N-])[C@@H](COP(=O)(O)C(=O)O[C@H]3CC[C@@]4(C)C(=CC[C@H]5[C@@H]6CC[C@H]([C@H](C)CCCC(C)C)[C@@]6(C)CC[C@@H]54)C3)O2)c(=O)[nH]c1=O` [Example 23]: in the data set on HIV-1 [6] (read-out: IC50 (HIV-1), plaque-forming assay, HT-4 cells), the IC50 was 0.25 µM.

Consider `CCCCCCCCCCCCCCCCCCOC(=O)O[PH](=O)OC[C@H]1O[C@@H](n2cc(C)c(=O)[nH]c2=O)C[C@@H]1N=[N+]=[N-]` (some centres unmarked) [Example 20, 3′-azido-3′-deoxy-5′-O-(1-octadecyloxycarbonyloxyphosphinyl)thymidine], for which the melting point is 224 °C (dec.).

For the compound `CCCCCCCCCCCCCCCCCCOC(=O)P(=O)(O)OC` [Example 8, Sodium Methyl 1-octadecyloxycarbonylphosphonate], the CC50 at 3 days in data set [5] was found to be 10 µM. Moreover, the “reduction of the number of viral plaques” value in the data set on HIV-1 [6] (HT-4 cells) came out at 35%.

Turning to `CCCCCCCCCCCCCCCCCCCCOC(=O)O[PH](=O)OC[C@H]1O[C@@H](n2cc(C)c(=O)[nH]c2=O)C[C@@H]1N=[N+]=[N-]` (some centres unmarked) [Example 21], the melting point is 230 °C (dec.).

Regarding `CCCCCCCCCCCCCCCCCCOC(=O)P(=O)(O)OC[C@H]1O[C@@H](n2cc(C)c(=O)[nH]c2=O)C[C@@H]1N=[N+]=[N-]` [Example 20], the EC50 came to 0.1 ± 0.15 µM in the data set with HIV-1LAI, 0.13 ± 0.14 µM with LAI-E89K (Human immunodeficiency virus 1) and 0.3 ± 0.32 µM in the data set with A018-post [4]. Also, the CC50 at 3 days in data set [5] was 10 µM. Further, the figures for the “Selectivity Index” value (in the data set with HT4-6C cells; in [3]) were 100 and 280, respectively. Also, in [3], the CC50 is 28 µM.

For `CCCCCCCCCCCCCCCCCCCCOC(=O)P(=O)(O)OC[C@H]1O[C@@H](n2cc(C)c(=O)[nH]c2=O)C[C@@H]1N=[N+]=[N-]` [Example 21], the EC50 worked out at 0.14 ± 0.16 µM in the data set with HIV-1LAI, 0.009 ± 0.007 µM in the data set with LAI-E89K (Human immunodeficiency virus 1), 0.53 ± 0.68 µM in the data set on A018-post [4] and 0.05 µM with HIV-1 [2]. In data set [5], the CC50 at 3 days came out at 32 µM. Besides, the “Selectivity Index” value was 228 with HT4-6C cells and 257 in [3]. Besides, the cytotoxicity entry in the data set on HT4-6C cells (at 0.1-1.0 μM) was “slight to moderate”; with HT4-6C cells (at 10 and 100 μM), “significant”. Further, in the data set with HT4-6C cells (toxic concentration over EC50(HIV-1)), the therapeutic selectivity entry is “ca. 200”. Moreover, the CC50 in data set [3] came to 36 µM. Further, the “fold less active than AZT” value in the data set with HIV-1 [6] (EC50(HIV-1) compared with AZT) was found to be 7 fold. The “times more active than PFA” value with HIV-1 [6] (EC50(HIV-1) compared with PFA) was 2,800 times.

In data set [5], `CCCCCCCCCCCCCCCCCCCCOC(=O)P(=O)(O)OC` [Example 9, Sodium Methyl 1-eicosanyloxycarbonylphosphonate] showed a CC50 at 3 days of 10 µM. Further, the “reduction of the number of viral plaques” value with HIV-1 [6] (HT-4 cells) came out at 35%.
